Results taken from BigSolDB 2.1.

COc1ccc([C@@H]2CC(=O)c3c(O)cc(O[C@@H]4O[C@H](CO[C@@H]5O[C@@H](C)[C@H](O)[C@@H](O)[C@H]5O)[C@@H](O)[C@H](O)[C@H]4O)cc3O2)cc1O
Settings | solubility (mole fraction)
in PEG-400, 298.15 K | 0.00633
in PEG-400, 303.15 K | 0.00749
in PEG-400, 313.15 K | 0.00985
in PEG-400, 323.15 K | 0.0124
in PEG-400, 333.15 K | 0.0152

solubility (mole fraction)
Settings | in ethanol | in isopropanol | in n-butanol | in propylene glycol | in water
298.15 K | 3.45e-05 | 1.53e-05 | 0.000315 | 0.000535 | 1.47e-07
303.15 K | 3.95e-05 | 1.87e-05 | 0.000359 | 0.000647 | 1.52e-07
313.15 K | 5.27e-05 | 2.61e-05 | 0.000461 | 0.000886 | 1.61e-07
323.15 K | 6.56e-05 | 3.82e-05 | 0.000582 | 0.00114 | 1.7e-07
333.15 K | 8.45e-05 | 5.86e-05 | 0.000715 | 0.00158 | 1.8e-07
